In brackets after ≈: the same amount, converted by molar mass.
Assays:
[1] = system: Aspergillus flavus; test: MIC, YAG medium, Aspergillus flavus; type: cell-based; conditions: YAG medium; for MIC: Aspergillus flavus, read-out: MIC A Flavus 01
How it was run: (§1)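 Broth microdilution over doubling dilutions (50-0.05 mg/L). C. albicans in RPMI with 2% glucose and 0.135M MOPS (pH7.0), 1-2×10^3 cfu/ml, 24-48 hrs at 35° C; MIC = >80% growth inhibition by OD485. Aspergillus spp. in YAG (1% glucose, 1% ammonium chloride, 0.5% yeast extract), 1-2×10^4 cfu/ml, 24 hrs, >70% inhibition.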

[2] = system: Aspergillus fumigatus AF293; test: MIC, YAG medium, Aspergillus fumigatus AF293; type: cell-based; conditions: YAG medium; for MIC: Aspergillus fumigatus, AF293, read-out: MIC A Fum. 293
How it was run: as §1

[3] = system: Aspergillus niger; test: MIC, YAG medium, Aspergillus niger; type: cell-based; conditions: YAG medium; for MIC: Aspergillus niger, read-out: MIC A Niger 1
How it was run: as §1

[4] = system: Aspergillus terreus; test: MIC, YAG medium, Aspergillus terreus; type: cell-based; conditions: YAG medium; for MIC: Aspergillus terreus, read-out: MIC A Terreus 4
How it was run: as §1

[5] = system: Aspergillus fumigatus AF210; test: MIC, YAG medium, Aspergillus fumigatus AF210; type: cell-based; conditions: YAG medium; for MIC: Aspergillus fumigatus, AF210, read-out: MIC A Fum. 210
How it was run: as §1

[6] = system: A Terreus 49; test: MIC, YAG medium, A Terreus 49; type: cell-based, Aspergillus terreus; conditions: YAG medium; for MIC: Aspergillus terreus, read-out: MIC A Terreus 49
Protocol: Measurement of Minimum Inhibitory Concentrations (MICs)
Between 1 and 5 mgs of compound were accurately weighed out into a sterile Eppendorf tube. The compound was dissolved in DMSO to give a solution containing 5 mg/ml. Tubes were stored at −20° C. until required.
On the day of testing thawed solutions were vortex mixed to ensure homogeneity. 30 μl of solution was removed and added to 570 μl of sterile water in a separate sterile Eppendorf. The thoroughly mixed solution was used to prepare a series of doubling dilutions in water, in a deep well plate. Eleven replicate plates were prepared using a Minitrak by aspirating 20 μl from each well into eleven clear polystyrene 96 well plates.
Spores of Aspergillus spp (Aspergillus fumigatus, Aspergillus terreus, Aspergillus niger and Aspergillus flavus) were harvested from cultures grown on Sabarauds agar for 5 days, and resuspended in PBS/Tween 80 to approx 1×10^7 cfu/ml Other filamentous fungi (Fusarium solani, Scedosporium spp., Trichophyton spp., Absidia corymbifera), were grown on Sabarauds agar for 2-10 days and spores/hyphae resuspended in PBS/Tween to give approx 1×10^7 cfU/ml. Candida species (Candida albicans, Candida glabrata, Candida krusei, Candida parapsilosis and Candida tropicalis) were grown on Sabarauds agar, cells were harvested from the agar using a sterile loop and resuspended in PBS/Tween 80 to approx 1×10^6 cfu/ml. Each organism suspension was diluted in RPMI medium, containing 2% glucose and 0.135M MOPS buffer (pH7.0) to 2×10^4 cfu/ml for Aspergillus spp and other filamentous fungi and 2×10^3 cfu/ml for yeast. 80 μl of an organism suspension was added to each well of the plate containing drug dilutions.
This produced MIC plates with a drug range 50-0.05 mg/L and organism inocula of 1-2×10^4 cfu/ml for Aspergillus spp and other filamentous fungi and 1-2×10^3 cfu/ml for yeasts. All plates were incubated for 24-48 hrs at 35° C. Growth was assessed by monitoring the optical density at 485 nm for each well. The MIC of a compound is the lowest drug concentration that inhibits growth of an organism by >80% compared with a drug free control. MICs are recorded as mg/L. Other growth media can be used for susceptibility testing, and the activity of the described compounds can also be assessed in a medium comprising, 1% glucose, 1% ammonium chloride and 0.5% yeast extract (YAG medium). To perform MIC tests in this medium, dilutions of compounds are prepared in microtitre plates as described above. Fungal strains to be tested are grown and harvested in an identical manner to that described above, each organism suspension is then diluted in YAG medium to 2×10^4 cfu/ml for Aspergillus spp and other filamentous fungi and 2×10^3 cfu/ml for yeast. 80 μl of an organism suspension was added to each well of the plate containing drug dilutions. This produced MIC plates with a drug range 50-0.05 mg/L and organism inocula of 1-2×10^4 cfu/ml for Aspergillus spp and other filamentous fungi and 1-2×10^3 cfu/ml for yeasts. All plates were incubated for 24 hrs at 35° C. Growth was assessed by monitoring the optical density at 485 nm for each well. The MIC of a compound is the lowest drug concentration that inhibits growth of an organism by >70% compared with a drug free control. MICs are recorded as mg/L. In cases where the MIC of an organism is […]0.05 mg/L the MIC is repeated using a concentration range of 0.5-0.0005 mg/L. MIC tests in YAG medium have more clear-cut endpoints and have slightly lower MICS than those performed in RPMI medium.
The following organisms were tested: Aspergillus fumigatus AF293 and Aspergillus fumigatus AF210, Aspergillus niger, Aspergillus terreus, Aspergillus favus, Candida albicans, Candida krusei, Candida tropicalis, Candida glabrata, Candida parapsilosis, Trichophyton rubrum, Trichophyton mentagrophytes, Scedosporium prolificans, Scedosporium apiospermum, Absidia corymbifera, Fusarium solani.

Row | SMILES | MIC [1] [mg/L] | MIC [2] [mg/L] | MIC [3] [mg/L] | MIC [4] [mg/L] | MIC [5] [mg/L] | MIC [6] [mg/L] | MIC A Flavus 01 [1] [mg/L] | MIC A Fum. 293 [2] [mg/L] | MIC A Niger 1 [3] [mg/L] | MIC A Terreus 4 [4] [mg/L] | MIC A Fum. 210 [5] [mg/L] | MIC A Terreus 49 [6] [mg/L]
1 | COC(=O)c1ccc(NC(=O)C(=O)c2c(-c3ccccc3)cc3ccccn23)cc1 [Example 140, 4-[2-Oxo-2-(2-phenyl-indolizin-3-yl)-acetylamino]-benzoic acid methyl ester] | 0.031 (≈ 0.0778 µM) | 0.12 (≈ 0.301 µM) | 0.031 (≈ 0.0778 µM) | 0.031 (≈ 0.0778 µM) | 0.12 (≈ 0.301 µM) | 0.015 (≈ 0.0376 µM) |  |  |  |  |  | 
2 | O=C(Nc1ccc(-c2cnco2)cc1)C(=O)c1c(-c2ccccc2)cc2ccccn12 [Example 291, N-(4-Oxazol-5-yl-phenyl)-2-oxo-2-(2-phenyl-indolizin-3-yl)-acetamide] | 0.03 (≈ 0.0736 µM) | 0.8 (≈ 1.96 µM) | 0.05 (≈ 0.123 µM) | 0.015 (≈ 0.0368 µM) | 3.1 (≈ 7.61 µM) | 0.015 (≈ 0.0368 µM) |  |  |  |  |  | 
3 | CC(=NO)c1ccc(NC(=O)C(=O)c2c(-c3ccccc3)cc3ccccn23)cc1 (mixture of isomers) [Example 250, N-(4-{1-[(E/Z)-Hydroxyimino]-ethyl}-phenyl)-2-oxo-2-(2-phenyl-indolizin-3-yl)-acetamide] |  |  |  |  |  |  | 0.1 | 0.2 | 0.05 | 0.1 | 0.8 | 0.05
4 | Cc1ccccc1NC(=O)C(=O)c1c(-c2ccccc2)cc2ccccn12 [Example 202, 2-Oxo-2-(2-phenyl-indolizin-3-yl)-N-o-tolyl-acetamide] | 0.062 (≈ 0.175 µM) | 0.5 (≈ 1.41 µM) | 0.031 (≈ 0.0875 µM) | 0.008 (≈ 0.0226 µM) | 0.25 (≈ 0.705 µM) | 0.015 (≈ 0.0423 µM) |  |  |  |  |  | 
5 | O=C(Nc1cccc(-c2ncco2)c1)C(=O)c1c(-c2ccccc2)cc2ccccn12 [Example 288, N-(3-Oxazol-2-yl-phenyl)-2-oxo-2-(2-phenyl-indolizin-3-yl)-acetamide] | 0.015 (≈ 0.0368 µM) | 0.1 (≈ 0.245 µM) | 0.1 (≈ 0.245 µM) | 0.008 (≈ 0.0196 µM) | 0.2 (≈ 0.491 µM) | 0.004 (≈ 0.00982 µM) |  |  |  |  |  | 
6 | CCN(CC)c1ccc(NC(=O)C(=O)c2c(-c3ccccc3)cc3ccccn23)cc1C [Example 290, N-(4-Diethylamino-3-methyl-phenyl)-2-oxo-2-(2-phenyl-indolizin-3-yl)-acetamide] | 0.05 (≈ 0.117 µM) | 0.1 (≈ 0.235 µM) | 0.05 (≈ 0.117 µM) | 0.03 (≈ 0.0705 µM) | 0.2 (≈ 0.47 µM) | 0.003 (≈ 0.00705 µM) |  |  |  |  |  | 
7 | CC(C)(C#N)c1cccc(NC(=O)C(=O)c2c(-c3ccccc3)cc3ccccn23)c1 [Example 228, N-[3-(Cyano-dimethyl-methyl)-phenyl]-2-oxo-2-(2-phenyl-indolizin-3-yl)-acetamide] | 0.004 (≈ 0.00982 µM) | 0.031 (≈ 0.0761 µM) | 0.015 (≈ 0.0368 µM) | 0.004 (≈ 0.00982 µM) | 0.031 (≈ 0.0761 µM) | 0.002 (≈ 0.00491 µM) |  |  |  |  |  | 
8 | CN(C)Cc1ccc(NC(=O)C(=O)c2c(-c3ccccc3)cc3ccccn23)cc1 [Example 278, N-(4-Dimethylaminomethyl-phenyl)-2-oxo-2-(2-phenyl-indolizin-3-yl)-acetamide] | 6.25 (≈ 15.7 µM) | 25 (≈ 62.9 µM) | 25 (≈ 62.9 µM) | 6.25 (≈ 15.7 µM) | 12.5 (≈ 31.4 µM) | 12.5 (≈ 31.4 µM) |  |  |  |  |  | 
9 | CC(C)(C#N)c1cccc(NC(=O)C(=O)c2c(-c3cccnc3)cc3ccccn23)c1 [Example 231, N-[3-(Cyano-dimethyl-methyl)-phenyl]-2-oxo-2-(2-pyridin-3-yl-indolizin-3-yl)-acetamide] | 0.05 (≈ 0.122 µM) | 1.6 (≈ 3.92 µM) | 0.8 (≈ 1.96 µM) | 0.1 (≈ 0.245 µM) | 0.8 (≈ 1.96 µM) |  |  |  |  |  |  | 
10 | CC(C)NC(=O)C(=O)c1c(-c2ccccc2)cc2ccccn12 [Example 180, N-Isopropyl-2-oxo-2-(2-phenyl-indolizin-3-yl)-acetamide] | > 50 | 6.25 (≈ 20.4 µM) | 3.1 (≈ 10.1 µM) | 6.25 (≈ 20.4 µM) | 6.25 (≈ 20.4 µM) |  |  |  |  |  |  | 
11 | COCCNC(=O)C(=O)c1c(-c2ccccc2)cc2ccccn12 [Example 181, N-(2-Methoxy-ethyl)-2-oxo-2-(2-phenyl-indolizin-3-yl)-acetamide] | 25 (≈ 77.6 µM) | 50 (≈ 155 µM) | 25 (≈ 77.6 µM) | 25 (≈ 77.6 µM) | 25 (≈ 77.6 µM) |  |  |  |  |  |  | 
12 | COc1ccc(NC(=O)C(=O)c2c(-c3ccncc3)cc3ccccn23)c(OC)c1 [Example 172, N-(2,4-Dimethoxy-phenyl)-2-oxo-2-(2-pyridin-4-yl-indolizin-3-yl)-acetamide] | 0.4 (≈ 0.996 µM) | 25 (≈ 62.3 µM) | 3.1 (≈ 7.72 µM) | 1.6 (≈ 3.99 µM) | 25 (≈ 62.3 µM) |  |  |  |  |  |  | 
13 | COc1ccc(NC(=O)C(=O)c2c(-c3ccccc3)cc3cc(C)ccn23)cn1 [Example 193, N-(6-Methoxy-pyridin-3-yl)-2-(7-methyl-2-phenyl-indolizin-3-yl)-2-oxo-acetamide] | 6.25 (≈ 16.2 µM) | > 50 | > 50 | 0.8 (≈ 2.08 µM) | > 50 |  |  |  |  |  |  | 

Continued, values first:

Row | MIC [1] [mg/L] | MIC [2] [mg/L] | MIC [3] [mg/L] | MIC [4] [mg/L] | MIC [5] [mg/L] | MIC [6] [mg/L] | MIC A Flavus 01 [1] [mg/L] | MIC A Fum. 293 [2] [mg/L] | MIC A Niger 1 [3] [mg/L] | MIC A Terreus 4 [4] [mg/L] | MIC A Fum. 210 [5] [mg/L] | MIC A Terreus 49 [6] [mg/L] | SMILES
14 | 0.015 (≈ 0.0423 µM) | 0.12 (≈ 0.339 µM) | 0.015 (≈ 0.0423 µM) | 0.008 (≈ 0.0226 µM) | 0.062 (≈ 0.175 µM) | 0.002 (≈ 0.00564 µM) |  |  |  |  |  |  | Cc1ccc(NC(=O)C(=O)c2c(-c3ccccc3)cc3ccccn23)cc1 [Example 135, 2-Oxo-2-(2-phenyl-indolizin-3-yl)-N-p-tolyl-acetamide]
15 | 0.031 (≈ 0.0739 µM) | 0.25 (≈ 0.596 µM) | 0.031 (≈ 0.0739 µM) | 0.015 (≈ 0.0358 µM) | 0.25 (≈ 0.596 µM) | 0.015 (≈ 0.0358 µM) |  |  |  |  |  |  | O=C(Nc1ccc(Br)cc1)C(=O)c1c(-c2ccccc2)cc2ccccn12 [Example 204, N-(4-Bromo-phenyl)-2-oxo-2-(2-phenyl-indolizin-3-yl)-acetamide]
16 | 0.062 (≈ 0.172 µM) | 0.8 (≈ 2.22 µM) | 0.25 (≈ 0.694 µM) | 0.06 (≈ 0.166 µM) | 1.6 (≈ 4.44 µM) | 0.062 (≈ 0.172 µM) |  |  |  |  |  |  | Cc1ccc(NC(=O)C(=O)c2c(-c3cccs3)cc3ccccn23)cc1 [Example 165, 2-Oxo-2-(2-thiophen-2-yl-indolizin-3-yl)-N-p-tolyl-acetamide]
17 | 0.12 (≈ 0.338 µM) | 0.5 (≈ 1.41 µM) | 0.5 (≈ 1.41 µM) | 0.12 (≈ 0.338 µM) | 0.4 (≈ 1.13 µM) | 0.12 (≈ 0.338 µM) |  |  |  |  |  |  | Cc1ccc(NC(=O)C(=O)c2c(-c3cccnc3)cc3ccccn23)cc1 [Example 173, 2-Oxo-2-(2-pyridin-3-yl-indolizin-3-yl)-N-p-tolyl-acetamide]
18 | > 50 | > 50 | 1.6 (≈ 4.31 µM) | > 50 | > 50 |  |  |  |  |  |  |  | COc1ccc(NC(=O)C(=O)c2c(-c3ccccn3)cc3ccccn23)cc1 [Example 163, N-(4-Methoxy-phenyl)-2-oxo-2-(2-pyridin-2-yl-indolizin-3-yl)-acetamide]
19 | 0.4 (≈ 1.13 µM) | 50 (≈ 141 µM) | > 50 | 0.8 (≈ 2.25 µM) | 1.6 (≈ 4.5 µM) |  |  |  |  |  |  |  | Cc1ccc(NC(=O)C(=O)c2c(-c3ccncc3)cc3ccccn23)cc1 [Example 171, 2-Oxo-2-(2-pyridin-4-yl-indolizin-3-yl)-N-p-tolyl-acetamide]
20 | > 50 | > 50 | > 50 | 3.1 (≈ 8.72 µM) | 3.1 (≈ 8.72 µM) |  |  |  |  |  |  |  | Cc1ccc(NC(=O)C(=O)c2c(-c3ccccn3)cc3ccccn23)cc1 [Example 175, 2-Oxo-2-(2-pyridin-2-yl-indolizin-3-yl)-N-p-tolyl-acetamide]

Source: patent US8486962B2, “Antifungal agents” (F2G Ltd., priority 2005, dated 2013)
